Results as given in US20260306525A1, “COMBINATION THERAPY GLUCOCORTICOIDS AND GINSENOSIDE” (FYTAGORAS B.V., priority 2023, published 2026).

Assays:
[1] = test system: zebrafish larvae; test: whole-body glucose measurement of zebrafish larvae; conditions: for whole-body glucose level: Example 2, non-wounded; for whole-body glucose level / whole-body glucose level upon wounding: 5 dpf; for whole body glucose level: 0-5 dpf, 10 μM beclomethasone, 50 μM Rg1 or combination; for whole-body glucose level upon wounding: Example 2, wounded at 2 dpf
Method: In each experiment, three biological replicates were used for each treatment group, and the colorimetric assay was performed using technical duplicates.
Tail fin wounding were performed at 2 days post-fertilization (dpf). At 5 dpf, the larvae (15 per sample) were placed in egg water for 1 h and collected in an Eppendorf tube, washed in egg water (3 times for 10 min). Subsequently, 100 μL of ice-cold glucose buffer was added to each sample, and the larvae were homogenized using a BulletBlender® for 3 min at 8,000 rpm. The homogenates were then centrifuged at 4° C. for 8 min at 11,000 rpm and the supernatant was stored at −20° C. Whole-body glucose concentrations were determined using a Glucose Colorimetric Assay kit (Cayman Chemical, Ann Arbor, MI, USA), according to the manufacturer's instructions. In each experiment, three biological replicates were used for each treatment group, and the colorimetric assay was performed using technical duplicates.

[2] = test system: nfkbiaa; test: qPCR nfkbiaa expression in zebrafish larvae; type: in vivo, zebrafish (Danio rerio); conditions: for nfkbiaa expression: Example 2, 6 h treatment; for nfkbiaa expression, short-term treatment / nfkbiaa expression, long-term treatment: 5 dpf, beclomethasone 10 μM, Rg1 50 μM or combination; for nfkbiaa expression, short-term treatment: 6 h; for nfkbiaa expression, long-term treatment: 5 days
Method: (§1) […] Groups of 15 larvae were collected in TRIzol reagent (ThermoFisher) and total RNA was isolated using miRNeasy mini kit (Qiagen, Hilden, Germany). For experiments in HeLa cells, cells were seeded in 6 well plates and after treatment, the cells were removed from the wells using TRIzol reagent and mRNA was isolated using miRNeasy mini kit (Qiagen) according to the manufacturer's instructions. The RNA samples were DNAse-treated utilizing the DNA-free™ DNA Removal Kit (ThermoFisher Scientific). The cDNA synthesis was performed using the iScript cDNA synthesis kit (Bio-Rad Laboratories, Hercules, CA, USA) using 1 μg of RNA per sample. For qPCR, 10 μM of forward primer and 10 μM of reverse primer, 12.5 μl of IQ SYBR Green Supermix (Bio-Rad Laboratories), and 2 μl of cDNA were added to the qPCR reaction mixture. […] The qPCR reactions were performed on a MyiQ-single-color real-time PCR detection system (Bio-Rad Laboratories), with initial denaturation for 3 min, 95° C., and 40 cycles of 15 s at 95.5° C., 15 s at 60° C., and 30 s at 72° C. Cycle threshold values (Ct values, i.e. the cycle numbers at which a threshold value of the fluorescence intensity was reached) were determined for each sample. The gene expression level for each sample was normalized using the expression of ppial (peptidylprolyl isomerase Ab (cyclophilin A)) for zebrafish samples, and 18S rRNA for human cells. The fold change per sample (compared to the respective control group) was calculated using the […]Ct method.
(§2) […] Per sample, groups of 15 larvae were collected in TRIzol reagent (Thermo Fisher Scientific, Waltham, MA, USA), and total RNA was isolated using the miRNeasy mini kit (Qiagen, Hilden, Germany). For similar experiments in Hela cells, cells were seeded in 6 well plates, and after 6 h of chemical treatment, the cells were removed from the wells using TRIzol reagent, and total RNA was isolated using the miRNeasy mini kit according to the manufacturer's instructions. The RNA samples were DNAse-treated utilizing the DNA-free™ DNA Removal Kit (Thermo Fisher Scientific). The cDNA synthesis was performed using the iScript cDNA synthesis kit (Bio-Rad Laboratories, Hercules, CA, USA) using 1 μg of RNA per sample. For the PCR reactions, 10 μM of forward and 10 μM of reverse primer, 12.5 μl of iQ SYBR Green Supermix (Bio-Rad), and 2 μl of cDNA were added to the qPCR reaction mixture. […] The reactions were performed on a MyiQ-single-color real-time PCR detection system (Bio-Rad Laboratories) with initial denaturation for 3 min at 95° C. and 40 cycles of 15 s at 95.5° C., 15 s at 60° C., and 30 s at 72° C. Cycle threshold values (Ct values, i.e. the cycle numbers at which a threshold value of the fluorescence intensity was reached) were determined for each sample. The gene expression level for each sample was normalized using the expression of ppial (peptidylprolyl isomerase Ab (cyclophilin A)) for zebrafish samples, 18S rRNA for human cells. The fold change per sample (compared to the respective control group) was calculated using the ΔΔCt method.

[3] = test system: fkbp5; test: qPCR fkbp5 expression in zebrafish larvae; type: in vivo, zebrafish (Danio rerio); conditions: for fkbp5 expression, short-term treatment / fkbp5 expression, long-term treatment: beclomethasone 10 μM, Rg1 50 μM or combination; for fkbp5 expression, long-term treatment: 5 days
Method: as §1, §2

[4] = test system: zebrafish larvae; test: tail fin regeneration assay; conditions: for tissue regeneration of tail fin: Example 2, amputation at 2 dpf, read at 5 dpf; for regeneration of amputated tail fin (length of regenerated tissue at 5 dpf): 0-5 dpf, 10 μM beclomethasone or dexamethasone, 50 μM Rg1 or combinations, amputation at 2 dpf; for tissue regeneration upon wounding: Example 2, wounded at 2 dpf (second statement on FIG. 8F)
Method: In experiments in which the length of regenerated tail fin tissue after wounding, or the larval body length, was used as a readout, chemical treatments were started at 2 hours post-fertilization (hpf) and continued until 5 dpf, as indicated (15 larvae per treatment group). During this period, solutions were refreshed daily. For the regeneration experiments, tail fins were amputated at 2 dpf. At 5 dpf, larvae were fixed overnight in 4% PFA at 4° C. For determination of the larval length and the regeneration of the tail fins, larvae were imaged using a LeicaMZ16FA fluorescence stereomicroscope supported by LAS 3.7 software. The length of the entire larva or the newly grown tissue was measured using ImageJ software. The newly grown tissue can be visually distinguished from the old tissue, enabling precise measurement of its length.

[5] = test system: gr; test: Gr transactivation activity in Tg(9xGCRE-HSV.UI23:EGFP)ia20 reporter larvae; type: in vivo, zebrafish (Danio rerio); conditions: for GFP fluorescence intensity (Gr transactivation): Example 2, 24 h, 3 dpf
Method: (§3) To investigate the Gr transactivation activity in zebrafish larvae, the Tg(9xGCRE-HSV.UI23:EGFP)^ia20 reporter line was used, which expresses enhanced green fluorescent protein (EGFP) under the control of a promoter containing an array of nine GREs. […] The integrated intensity of the EGFP signal in the larvae was determined using ImageJ software.
as §3, with “Tg(9xGCRE-HSV.UI23:EGFP^ia20)” for “Tg(9xGCRE-HSV.UI23:EGFP)^ia20”

[6] = test system: zebrafish larvae; test: whole-body cortisol measurement of zebrafish larvae (ELISA); conditions: for whole-body cortisol level: Example 2, non-wounded; for whole-body cortisol level / whole-body cortisol level upon wounding: 5 dpf; for whole body cortisol level: 0-4 dpf, 10 μM beclomethasone, 50 μM Rg1 or combination; for whole-body cortisol level upon wounding: Example 2, wounded at 2 dpf
Method: Ethyl acetate was added to the homogenate. The homogenates were then centrifuged at 4° C. for 8 min at 11,000 rpm and the supernatant was collected and vaporized. A volume of 150 μl of 0.2% Bovine serum albumin (Sigma-Aldrich) dissolved in PBS was added to the samples and frozen. Whole-body cortisol levels of the zebrafish larvae were determined by ELISA (Demeditec Diagnostics GmbH, Kiel-Wellsee, Germany), following the manufacturer's instructions. In each experiment, three biological replicates were used for each treatment group, and the ELISA was performed using technical duplicates.
Tail fin wounding were performed at 2 days post-fertilization (dpf). At 96hpf, the treatments were stopped, and larvae were incubated in egg water until 5 dpf to avoid cross-reactivity between the compounds and the cortisol antibody used in the ELISA. At dpf, the larvae were collected in an Eppendorf tube (30 larvae per sample), and 100 μl of ice-cold egg water was added. After the excess water had been taken out, the samples were glaciated in ethanol (EtOH)/dry-ice bath. Subsequently, the larvae were homogenized using a BulletBlender® for 3 min at 8,000 rpm. Ethyl acetate was added to the homogenate. The homogenates were then centrifuged at 4° C. for 8 min at 11,000 rpm, and the supernatant was collected and vaporized. A volume of 150 μl of 0.2% bovine serum albumin (Sigma-Aldrich) dissolved in PBS was added to the samples and frozen. Whole-body cortisol levels of the zebrafish larvae were determined using a Cortisol free in Saliva ELISA kit (Demeditec Diagnostics GmbH, Kiel-Wellsee, Germany), following the manufacturer's instructions. In each experiment, three biological replicates were used for each treatment group, and the ELISA was performed using technical duplicates.

[7] = beclomethasone 0.1, 1, 5, 10, 15 μM without or with 50 μM Rg1
[8] = 3 dpf, wounded larvae, 6 h, 10 μM beclomethasone, 50 μM Rg1 or combination

| Structure (SMILES) | whole-body glucose level [1] | nfkbiaa expression [2] | fkbp5 expression ([3]; Example 2, 6 h treatment) | tissue regeneration of tail fin [4] | GFP fluorescence intensity (Gr transactivation) [5] | whole-body cortisol level [6] | whole body glucose level [1] | nfkbiaa expression, short-term treatment [2] | nfkbiaa expression, long-term treatment [2] | fkbp5 expression [3, 8] | fkbp5 expression, short-term treatment ([3]; 6 h) | fkbp5 expression, long-term treatment [3] | regeneration of amputated tail fin (length of regenerated tissue at 5 dpf) [4] | whole body cortisol level [6] | whole-body glucose level upon wounding [1] | tissue regeneration upon wounding [4] | whole-body cortisol level upon wounding [6] | further results |
| --- | --- | --- | --- | --- | --- | --- | --- | --- | --- | --- | --- | --- | --- | --- | --- | --- | --- | --- |
| CC(C)=CCC[C@](C)(O)[C@H]1CC[C@]2(C)[C@@H]1[C@H](O)C[C@@H]1[C@@]3(C)CC[C@H](O)C(C)(C)[C@@H]3[C@@H](O)C[C@]12C [PPT, Protopanaxatriol] | did not affect the glucose level | did not increase the expression | did not increase the expression | considerably inhibited the regeneration of the tail fin after wounding | none of the ginsenosides PPT, F1, Rh1, and Rg1 altered the fluorescence intensity | did decrease the cortisol concentration | – | – | – | – | – | – | – | – | – | – | – | – |
| C[C@H]1C[C@H]2[C@@H]3CCC4=CC(=O)C=C[C@]4(C)[C@@]3(Cl)[C@@H](O)C[C@]2(C)[C@@]1(O)C(=O)CO [beclomethasone, reference compound] | increase in the glucose level | – | – | inhibited the tissue regeneration | significant increase in the GFP signal throughout the body of the larvae | decrease in cortisol level | elevated whole body glucose | upregulated the expression | this upregulation of pck1 and nfkbiaa was significantly reduced after long-term treatment | upregulated the expression of pck1 and fkbp5 | upregulated the expression | the upregulation of fkbp5 did not decrease | inhibited the regeneration | reduced whole body cortisol levels | – | – | – | dose-response of whole-body glucose level [1, 7]: dose-dependent effect; dose-response of whole-body cortisol level [6, 7]: dose-dependent effect |
| CC(C)=CCC[C@](C)(O[C@@H]1O[C@H](CO)[C@@H](O)[C@H](O)[C@H]1O)[C@H]1CC[C@]2(C)[C@@H]1[C@H](O)C[C@@H]1[C@@]3(C)CC[C@H](O)C(C)(C)[C@@H]3[C@@H](O[C@@H]3O[C@H](CO)[C@@H](O)[C@H](O)[C@H]3O)C[C@]12C [Rg1, (3β,6α, 12β)-3,12-Dihydroxydammar-24-ene-6,20-diyl bis-β-D-glucopyranoside] | did not show any side effects | did not increase the expression | did not increase the expression | did not show any side effects | none of the ginsenosides PPT, F1, Rh1, and Rg1 altered the fluorescence intensity | did not show any side effects | did not affect the whole-body glucose and cortisol concentrations | did not affect the expression of the genes | did not affect the expression of the genes | did not affect the expression of these genes | did not affect the expression of the genes | did not affect the expression of the genes | did not affect the regenerative process | did not affect the whole-body glucose and cortisol concentrations | still not show any effect on the glucose or cortisol level or on tissue regeneration | still not show any effect on the glucose or cortisol level or on tissue regeneration | still not show any effect on the glucose or cortisol level or on tissue regeneration | relative EGFP intensity (Gr transactivation) ([5]; 24 h from 2 dpf, 10 μM GC, 50 μM Rg1 or combination): did not affect the EGFP signal |
| CC(C)=CCC[C@](C)(O)[C@H]1CC[C@]2(C)[C@@H]1[C@H](O)C[C@@H]1[C@@]3(C)CC[C@H](O)C(C)(C)[C@@H]3[C@@H](O[C@@H]3O[C@H](CO)[C@@H](O)[C@H](O)[C@H]3O)C[C@]12C [Rh1] | did not show any side effects | did not increase the expression | did not increase the expression | did not show any side effects | none of the ginsenosides PPT, F1, Rh1, and Rg1 altered the fluorescence intensity | did not show any side effects | – | – | – | – | – | – | – | – | still not show any effect on the glucose or cortisol level or on tissue regeneration | still not show any effect on the glucose or cortisol level or on tissue regeneration | still not show any effect on the glucose or cortisol level or on tissue regeneration | – |
| CC(C)=CCC[C@](C)(O[C@@H]1O[C@H](CO)[C@@H](O)[C@H](O)[C@H]1O)[C@H]1CC[C@]2(C)[C@@H]1[C@H](O)C[C@@H]1[C@@]3(C)CC[C@H](O)C(C)(C)[C@@H]3[C@@H](O)C[C@]12C [F1] | did not show any side effects | did not increase the expression | did not increase the expression | did not show any side effects | none of the ginsenosides PPT, F1, Rh1, and Rg1 altered the fluorescence intensity | did not show any side effects | – | – | – | – | – | – | – | – | did not affect the glucose level | minor effect on the cortisol level and on tissue regeneration | minor effect on the cortisol level and on tissue regeneration | tissue regeneration effect in presence of Gba2 inhibitor MZ31 ([4]; Example 2, wounded, with MZ31): These latter effects were Gba2-dependent; cortisol effect upon wounding in presence of Gba2 inhibitor MZ31 ([6]; Example 2, wounded, with MZ31): These latter effects were Gba2-dependent |
